Reference: patent US10842151B2, “Small molecule compound for enhancing plant stress resistance” (SHANGHAI INSTITUTES FOR BIOLOGICAL SCIENCES, CHINESE …, priority 2015, dated 2020)

Legend:
soybean = assay: Soil drought experiment, soybean; type: in vivo; conditions: 50 μM
Description: Only one plant was contained in each pot. All soybean plants were long-day cultured at 26° C. Watering was stopped after the plant had three leaves in each of three groups of leaves and the plants with consistent growth were selected for drought treatment. As for corn, watering was stopped during the small trumpet period for drought treatment. […] After a week, the watering was resumed. Soybeans and cotton used in leaf transpiration experiments for compound 0720B were also used for soil drought experiments. Each pot contained only one plant and was filled with the same weight of soil to reduce experimental errors. All of the soybean plants were grown at 26° C. for long-day culture. 16 days after seeding, watering was stopped and the plants with consistent growth were selected for drought treatment. […] Cotton drought experiments were similar to that of the soybean. 23 days after seeding, the watering was stopped, and the plants with consistent growth were selected for drought treatment. […] After 10 days of drought, the photos were taken.

[1] = test system: Arabidopsis thaliana Col-0 ecotype seeds; assay: Seed germination, Col-0; type: in vivo; conditions: 1 μM
From the text: (§1) Two lines of plant were sown simultaneously on a single medium of 6 cm diameter, with 15 seeds sown for each line and 4 replicates for each compound. […]

[2] = test system: Yunnan Lily variety Siberia; assay: Flower preservative experiment; type: in vivo; conditions: aqueous suspension 10 ppm (22.5 μM); after 20 days
Description: The commercially available Yunnan Lily varieties “Siberia” biennial buds were used for test, wherein each branch had 5 buds and 10 leaves, and there was 1 branch per bottle. The branch having buds was inserted into a water suspension preparation containing 10 ppm (22.5 μM) of AMX compound 1127 or into tap water. The flower status was recorded before and after 20 days of treatment.

[3] = test system: Arabidopsis Col-0 ecotype; assay: Soil drought experiment, Arabidopsis; type: in vivo, Arabidopsis thaliana
Description: Seeds of Arabidopsis Col-0 ecotype were sterilized with NaClO and then sown on ½ MS solid medium at 4° C. for 3 days of vernalization. After 6 days of growing, the well-grown seedlings having uniform size were selected and transferred into 8×7×6 cm^3 pots. Each pot was filled with the same weight of soil and the same number of plants (six plants) was planted to reduce experimental error. All the pots were subjected to a short-day culture at 22° C. After two weeks, watering was stopped for drought treatment. […] The position of the flowerpot was changed every day during the process of drought to reduce the error caused by environmental factors. During the whole drought period, the solution was sprayed twice in total and photos were recorded regularly. The watering was resumed in about three weeks.

PYL7 + HAB1 = target: T1, PYL7 + HAB1 (Arabidopsis thaliana, UniProt Q1ECF1); assay: AlphaScreen experiment, PYL7 + HAB1; type: binding; conditions: number in brackets; read-out: Half maximum effect concentration EC50 (PYL7 + HAB1)
T1 construct: made in house; host or cells: E. coli BL21 (DE3)
T1 sequence (Q1ECF1 1-211): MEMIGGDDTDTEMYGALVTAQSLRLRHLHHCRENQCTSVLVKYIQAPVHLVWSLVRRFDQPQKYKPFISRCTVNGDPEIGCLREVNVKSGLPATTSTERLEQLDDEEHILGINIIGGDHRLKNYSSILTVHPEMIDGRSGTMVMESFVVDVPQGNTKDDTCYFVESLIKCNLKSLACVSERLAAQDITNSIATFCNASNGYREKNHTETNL
T1 sequence (Q9CAJ0 172-511 partner limits assumed): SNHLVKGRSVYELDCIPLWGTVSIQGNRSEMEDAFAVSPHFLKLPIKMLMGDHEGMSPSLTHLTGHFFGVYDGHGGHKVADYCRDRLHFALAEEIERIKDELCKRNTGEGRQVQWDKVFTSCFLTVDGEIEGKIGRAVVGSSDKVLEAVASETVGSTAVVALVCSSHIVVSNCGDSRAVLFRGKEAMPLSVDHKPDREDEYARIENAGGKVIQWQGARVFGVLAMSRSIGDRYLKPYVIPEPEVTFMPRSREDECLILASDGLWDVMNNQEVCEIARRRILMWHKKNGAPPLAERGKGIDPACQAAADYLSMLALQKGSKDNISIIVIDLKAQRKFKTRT
Description: (§2) After incubating for 1.5 hours at room temperature in the dark, it was placed into an Envision Plate Reader (available from Perkin Elmer) under the programmed AlphaScreen procedure for readings.

PYR1 + HAB1 = target: T2, PYR1 + HAB1 (Arabidopsis thaliana, UniProt O49686); assay: AlphaScreen experiment, PYR1 + HAB1; type: binding; conditions: column 2; number in brackets; read-out: Half maximum effect concentration EC50 (PYR1 + HAB1)
T2 sequence (O49686 1-191): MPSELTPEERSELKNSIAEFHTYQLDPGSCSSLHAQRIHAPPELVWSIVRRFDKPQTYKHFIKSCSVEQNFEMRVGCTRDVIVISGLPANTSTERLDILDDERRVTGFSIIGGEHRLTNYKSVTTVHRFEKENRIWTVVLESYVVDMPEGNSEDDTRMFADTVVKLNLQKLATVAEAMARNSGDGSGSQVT
T2 sequence (Q9CAJ0 172-511 partner): T1 sequence (Q9CAJ0 172-511 partner limits assumed)
Description: as §2

[4] = test system: pyr1;pyl1;pyl4 triple mutant seeds; assay: Seed germination, PYR/PYL triple mutant; type: in vivo, Arabidopsis thaliana; conditions: 1 μM; six days after seeding
From the text: as §1

PYL2 + HAB1 = target: T3, PYL2 + HAB1 (Arabidopsis thaliana, UniProt O80992); assay: AlphaScreen experiment, PYL2 + HAB1; type: binding; conditions: number in brackets; read-out: Half maximum effect concentration EC50 (PYL2 + HAB1)
T3 construct: made in house; host or cells: E. coli BL21 (DE3)
T3 sequence (O80992 14-188 limits assumed): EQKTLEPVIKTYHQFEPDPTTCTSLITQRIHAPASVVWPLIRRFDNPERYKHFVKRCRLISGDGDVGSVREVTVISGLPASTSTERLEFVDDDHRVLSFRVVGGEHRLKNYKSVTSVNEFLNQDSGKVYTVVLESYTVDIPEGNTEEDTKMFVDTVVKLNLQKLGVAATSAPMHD
T3 sequence (Q9CAJ0 172-511 partner limits assumed): T1 sequence (Q9CAJ0 172-511 partner limits assumed)
Description: as §2

[5] = test system: Salmonella typhimurium TA98 and TA100; assay: Bacterial reverse mutation experiment; type: cell-based; conditions: all doses; -S9
Description: (§3) The test substance used in the experiment was AMX compound 1127.
Two strains of Salmonella typhimurium, TA98 and TA100, were used in the bacterial reverse mutation experiment. The experiment was carried out by using standard plate incorporation method under a condition of non-metabolic activation system (−S9). There were totally 7 doses of […] as well as a negative control and a positive control.

[6] = test system: Chinese hamster lung cell (CHL); assay: In vitro micronucleus experiment; type: cell-based; conditions: -S9; 24 hours
Description: as §3
Firstly, CHL cells used in in vitro micronucleus test were tested in IC50 determination experiment. According to IC50 determination results, in vitro micronucleus test dosage was set. 4 doses of 1 μg/ml, 20 μg/ml, 30 μg/ml and 40 μg/ml were set in total, while a negative control and a positive control were also set. The CHL cells were treated for 24 hours under the condition of −S9 and sections were prepared.
The numbers of monocytes, binucleate cells and multinucleated cells in 500 cells per dose were counted and the cytokinesis-block proliferation index (CBPI) and cytotoxicity at each dose were calculated.

Structure (SMILES): CCCN1C(=O)CCc2cc(NS(=O)(=O)Cc3c(F)c(F)c(C)c(F)c3F)ccc21 [Compound 1127]
- growth (soybean; a week of drought, one month after rewatering): grew significantly better than the plants sprayed with DMSO (control) and sprayed with 50 μM ABA
- survival rate (soybean; after rewatering): higher than that in the above two groups
- inhibition effect on germination of Col-0 ecotype seeds compared with control compound [1]: significantly better inhibition effect
- germination of Col-0 ecotype seeds ([1]; six days after seeding): could still inhibit germination of Col-0 ecotype seeds
- flowers remained normal [2]: 60%
- leaf withering [2]: no leave withered
- leaves remained green [2]: 70%
- plant survival ([3]; 5 μM sprayed, 18 days after drought): still survived
- plant growth ([3]; 5 μM sprayed, after 20 days of drought): still maintained good growth
- drought resistance compared with compound with fewer halogen atoms (0604c) ([3]; same concentration, after 2 weeks of drought, FIG. 8c): stronger drought resistance
- EC50 (PYL7 + HAB1): 10 nM
- EC50 (PYR1 + HAB1): 15 nM
- germination of pyr1;pyl1;pyl4 triple mutant seeds [4]: could not inhibit germination of PYR/PYL triple mutant pyr1;pyl1;pyl4 seeds
- EC50 (PYL2 + HAB1): 20 nM
- bacterial toxicity to TA98 and TA100 strains [5]: no obvious bacterial toxicity
- micronuclei rate in CHL cells [6]: did not induce an increased micronuclei rate
